pIC50: −log10 of the molar value. Where a name gives a salt, the structure may show the parent alone.
These molecules were tested against T1, human MGL from HeLa cells (Homo sapiens, UniProt Q99685) (assay: In vitro MGL activity assay: [glycerol-1,3-3H]-oleyl glycerol cleavage by MGL from HeLa cells). Settings: 300 nM [Glycerol-1,3-3H]-oleyl glycerol, one hour.
T1 construct: combining endogenously expressed MGL from HeLa cells with test compounds; endogenous in cells; host or cells: HeLa cells / cell homogenates
T1 sequence (Q99685 1-303): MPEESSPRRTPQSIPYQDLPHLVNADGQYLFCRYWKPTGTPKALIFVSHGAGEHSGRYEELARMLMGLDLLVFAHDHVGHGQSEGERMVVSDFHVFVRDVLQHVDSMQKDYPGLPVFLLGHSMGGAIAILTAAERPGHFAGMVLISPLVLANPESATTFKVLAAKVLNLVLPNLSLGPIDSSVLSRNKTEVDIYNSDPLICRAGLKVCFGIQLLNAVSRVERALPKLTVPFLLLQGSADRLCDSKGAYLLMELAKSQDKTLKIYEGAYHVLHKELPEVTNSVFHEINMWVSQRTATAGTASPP
Type: biochemical
From the text: MGL is the predominant hydrolase in HeLa cells/cell homogenates.

Row | pIC50 | Compound
1 | 7.99 | Cc1nc2ccccn2c1C(=O)N1CCc2c(nn(C)c2-c2cc(F)c(F)c(F)c2)[C@@H]1C [Example 397, [(7S)-2,7-Dimethyl-3-(3,4,5-trifluorophenyl)-5,7-dihydro-4H-pyrazolo[3,4-c]pyridin-6-yl]-(2-methylimidazo[1,2-a]pyridin-3-yl)methanone]
2 | 6.61 | Cc1c(C(=O)N2CCc3c(nn(C)c3-c3cc(F)c(F)c(F)c3)[C@@H]2C)nc2ccccn12 [Example 398, [(7S)-2,7-Dimethyl-3-(3,4,5-trifluorophenyl)-5,7-dihydro-4H-pyrazolo[3,4-c]pyridin-6-yl]-(3-methylimidazo[1,2-a]pyridin-2-yl)methanone]
3 | 7.20 | Cc1ccn2c(C(=O)N3CCc4c(nn(C)c4-c4cc(F)c(F)c(F)c4)[C@@H]3C)cnc2c1 [Example 399, [(7S)-2,7-Dimethyl-3-(3,4,5-trifluorophenyl)-5,7-dihydro-4H-pyrazolo[3,4-c]pyridin-6-yl]-(7-methylimidazo[1,2-a]pyridin-3-yl)methanone]
4 | 7.28 | Cc1ccc2ncc(C(=O)N3CCc4c(nn(C)c4-c4cc(F)c(F)c(F)c4)[C@@H]3C)n2c1 [Example 400, [(7S)-2,7-Dimethyl-3-(3,4,5-trifluorophenyl)-5,7-dihydro-4H-pyrazolo[3,4-c]pyridin-6-yl]-(6-methylimidazo[1,2-a]pyridin-3-yl)methanone]
5 | 7.84 | Cc1cccc2ncc(C(=O)N3CCc4c(nn(C)c4-c4cc(F)c(F)c(F)c4)[C@@H]3C)n12 [Example 401, [(7S)-2,7-Dimethyl-3-(3,4,5-trifluorophenyl)-5,7-dihydro-4H-pyrazolo[3,4-c]pyridin-6-yl]-(5-methylimidazo[1,2-a]pyridin-3-yl)methanone]
6 | 7.66 | Cc1nc2cc(F)ccn2c1C(=O)N1CCc2c(nn(C)c2-c2cc(F)c(F)c(F)c2)[C@@H]1C [Example 402, [(7S)-2,7-Dimethyl-3-(3,4,5-trifluorophenyl)-5,7-dihydro-4H-pyrazolo[3,4-c]pyridin-6-yl]-(7-fluoro-2-methyl-imidazo[1,2-a]pyridin-3-yl)methanone]
7 | 7.36 | Cc1nc2c(C)cccn2c1C(=O)N1CCc2c(nn(C)c2-c2cc(F)c(F)c(F)c2)[C@@H]1C [Example 403, (2,8-Dimethylimidazo[1,2-a]pyridin-3-yl)-[(7S)-2,7-dimethyl-3-(3,4,5-trifluorophenyl)-5,7-dihydro-4H-pyrazolo[3,4-c]pyridin-6-yl]methanone]
8 | 7.30 | Cc1ccn2c(C(=O)N3CCc4c(nn(C)c4-c4cc(F)c(F)c(F)c4)[C@@H]3C)c(C)nc2c1 [Example 404, (2,7-Dimethylimidazo[1,2-a]pyridin-3-yl)-[(7S)-2,7-dimethyl-3-(3,4,5-trifluorophenyl)-5,7-dihydro-4H-pyrazolo[3,4-c]pyridin-6-yl]methanone]
9 | 6.55 | Cc1ccc2nc(C)c(C(=O)N3CCc4c(nn(C)c4-c4cc(F)c(F)c(F)c4)[C@@H]3C)n2c1 [Example 405, (2,6-Dimethylimidazo[1,2-a]pyridin-3-yl)-[(7S)-2,7-dimethyl-3-(3,4,5-trifluorophenyl)-5,7-dihydro-4H-pyrazolo[3,4-c]pyridin-6-yl]methanone]
10 | 7.65 | COc1cc(Cl)cc(-c2c3c(nn2C)[C@H](C)N(C(=O)c2c(C)nc4ccc(F)cn24)CC3)c1 [Example 406, [(7S)-3-(3-Chloro-5-methoxy-phenyl)-2,7-dimethyl-5,7-dihydro-4H-pyrazolo[3,4-c]pyridin-6-yl]-(6-fluoro-2-methyl-imidazo[1,2-a]pyridin-3-yl)methanone]
11 | 7.67 | Cc1nc2ccc(F)cn2c1C(=O)N1CCc2c(nn(C)c2-c2cc(F)c(F)c(F)c2)[C@@H]1C [Example 407, [(7S)-2,7-Dimethyl-3-(3,4,5-trifluorophenyl)-5,7-dihydro-4H-pyrazolo[3,4-c]pyridin-6-yl]-(6-fluoro-2-methyl-imidazo[1,2-a]pyridin-3-yl)methanone]
12 | 7.57 | Cc1nc2c(C)cc(F)cn2c1C(=O)N1CCc2c(nn(C)c2-c2cc(F)c(F)c(F)c2)[C@@H]1C [Example 408, [(7S)-2,7-Dimethyl-3-(3,4,5-trifluorophenyl)-5,7-dihydro-4H-pyrazolo[3,4-c]pyridin-6-yl]-(6-fluoro-2,8-dimethyl-imidazo[1,2-a]pyridin-3-yl)methanone]
13 | 7.12 | Cc1cc2nc(C)c(C(=O)N3CCc4c(nn(C)c4-c4cc(F)c(F)c(F)c4)[C@@H]3C)n2cc1F [Example 409, [(7S)-2,7-Dimethyl-3-(3,4,5-trifluorophenyl)-5,7-dihydro-4H-pyrazolo[3,4-c]pyridin-6-yl]-(6-fluoro-2,7-dimethyl-imidazo[1,2-a]pyridin-3-yl)methanone]
14 | 6.76 | Cc1nc2c(F)cc(F)cn2c1C(=O)N1CCc2c(nn(C)c2-c2cc(F)c(F)c(F)c2)[C@@H]1C [Example 410, (6,8-Difluoro-2-methyl-imidazo[1,2-a]pyridin-3-yl)-[(7S)-2,7-dimethyl-3-(3,4,5-trifluorophenyl)-5,7-dihydro-4H-pyrazolo[3,4-c]pyridin-6-yl]methanone]
15 | 7.89 | C[C@H]1c2nn(C)c(-c3cc(F)c(F)c(F)c3)c2CCN1C(=O)c1c(C(F)F)nc2ccccn12 [Example 412, [2-(Difluoromethyl)imidazo[1,2-a]pyridin-3-yl]-[(7S)-2,7-dimethyl-3-(3,4,5-trifluorophenyl)-5,7-dihydro-4H-pyrazolo[3,4-c]pyridin-6-yl]methanone]
16 | 7.64 | C[C@H]1c2nn(C)c(-c3cc(F)c(F)c(F)c3)c2CCN1C(=O)c1c(C(F)(F)F)nc2ccccn12 [Example 413, [(7S)-2,7-Dimethyl-3-(3,4,5-trifluorophenyl)-5,7-dihydro-4H-pyrazolo[3,4-c]pyridin-6-yl]-[2-(trifluoromethyl)imidazo[1,2-a]pyridin-3-yl]methanone]
17 | 7.69 | Cc1cccc2nc(C(F)(F)F)c(C(=O)N3CCc4c(nn(C)c4-c4cc(F)c(F)c(F)c4)[C@@H]3C)n12 [Example 414, [(7S)-2,7-Dimethyl-3-(3,4,5-trifluorophenyl)-5,7-dihydro-4H-pyrazolo[3,4-c]pyridin-6-yl]-[5-methyl-2-(trifluoromethyl)imidazo[1,2-a]pyridin-3-yl]methanone]
18 | 7.88 | C[C@H]1c2nn(C)c(-c3cc(F)c(F)c(F)c3)c2CCN1C(=O)c1nccn2cccc12 [Example 415, [(7S)-2,7-Dimethyl-3-(3,4,5-trifluorophenyl)-5,7-dihydro-4H-pyrazolo[3,4-c]pyridin-6-yl]-pyrrolo[1,2-a] pyrazin-1-yl-methanone]
19 | 8.14 | C[C@H]1c2nn(C)c(-c3cc(F)c(F)c(F)c3)c2CCN1C(=O)c1ccn2ccncc12 [Example 416, [(7S)-2,7-Dimethyl-3-(3,4,5-trifluorophenyl)-5,7-dihydro-4H-pyrazolo[3,4-c]pyridin-6-yl]-pyrrolo[1,2-a]pyrazin-8-yl-methanone]
20 | 6.90 | Cc1cc(C)n2ccc(C(=O)N3CCc4c(nn(C)c4-c4cc(F)c(F)c(F)c4)[C@@H]3C)c2n1 [Example 417, (2,4-Dimethylpyrrolo[1,2-a]pyrimidin-8-yl)-[(7S)-2,7-dimethyl-3-(3,4,5-trifluorophenyl)-5,7-dihydro-4H-pyrazolo[3,4-c]pyridin-6-yl] methanone]
21 | 7.84 | Cc1ncc2ccc(C(=O)N3CCc4c(nn(C)c4-c4cc(F)c(F)c(F)c4)[C@@H]3C)cn12 [Example 418, [(7S)-2,7-Dimethyl-3-(3,4,5-trifluorophenyl)-5,7-dihydro-4H-pyrazolo[3,4-c]pyridin-6-yl]-(3-methylimidazo[1,5-a]pyridin-6-yl)methanone]
22 | 6.72 | Cc1ccn2cnc(C(=O)N3CCc4c(nn(C)c4-c4cc(F)c(F)c(F)c4)[C@@H]3C)c2c1 [Example 419, [(7S)-2,7-Dimethyl-3-(3,4,5-trifluorophenyl)-5,7-dihydro-4H-pyrazolo[3,4-c]pyridin-6-yl]-(7-methylimidazo[1,5-a]pyridin-1-yl)methanone]
23 | 7.23 | C[C@H]1c2nn(C)c(-c3cc(F)c(F)c(F)c3)c2CCN1C(=O)c1ncn2ccccc12 [Example 420, [(7S)-2,7-Dimethyl-3-(3,4,5-trifluorophenyl)-5,7-dihydro-4H-pyrazolo[3,4-c]pyridin-6-yl]-imidazo[1,5-a]pyridin-1-yl-methanone]
24 | 8.18 | C[C@H]1c2nn(C)c(-c3cc(F)c(F)c(F)c3)c2CCN1C(=O)c1nc(C2CC2)n2ccccc12 [Example 421, (3-Cyclopropylimidazo[1,5-a]pyridin-1-yl)-[(7S)-2,7-dimethyl-3-(3,4,5-trifluorophenyl)-5,7-dihydro-4H-pyrazolo[3,4-c]pyridin-6-yl]methanone]
25 | 7.34 | C[C@H]1c2nn(C)c(-c3cc(F)c(F)c(F)c3)c2CCN1C(=O)c1ccnc2[nH]ncc12 [Example 422, [(7S)-2,7-Dimethyl-3-(3,4,5-trifluorophenyl)-5,7-dihydro-4H-pyrazolo[3,4-c]pyridin-6-yl]-(1H-pyrazolo[3,4-b]pyridin-4-yl)methanone]
26 | 7.39 | C[C@H]1c2nn(C)c(-c3cc(F)c(F)c(F)c3)c2CCN1C(=O)c1cnc2[nH]ncc2c1 [Example 423, [(7S)-2,7-Dimethyl-3-(3,4,5-trifluorophenyl)-5,7-dihydro-4H-pyrazolo[3,4-c]pyridin-6-yl]-(1H-pyrazolo[3,4-b]pyridin-5-yl)methanone.TFA salt]
27 | 7.97 | Cc1cc(C(=O)N2CCc3c(nn(C)c3-c3cc(F)c(F)c(F)c3)[C@@H]2C)c2cnn(C)c2n1 [Example 424, (1,6-Dimethylpyrazolo[3,4-b]pyridin-4-yl)-[(7S)-2,7-dimethyl-3-(3,4,5-trifluorophenyl)-5,7-dihydro-4H-pyrazolo[3,4-c]pyridin-6-yl]methanone]

From patent US11820766B2, “Monoacylglycerol lipase modulators” (Janssen Pharmaceutica NV, priority 2018, dated 2023)
